Assay results from US11897868B2, “Heterocyclic inhibitors of PCSK9” (CARDIO THERAPEUTICS PTY LTD, priority 2017, dated 2024).

target: T1, PCSK9 and the LDL receptor (Homo sapiens, UniProt Q8NBP7); test: CircuLex PCSK9-LDLR in vitro binding assay; conditions: His-tagged PCSK9 wild type, 8 point concentration curves, absorbance 450 nm and 540 nm, read-out: Inhibition of PCSK9-LDLR binding
T1 construct: purchased CircuLex CY-8150
Description: Compounds were assayed for their ability to inhibit the binding between PCSK9 and the LDL receptor using a CircuLex PCSK9-LDLR in vitro binding assay kit (Catalog #CY-8150. The procedure employed the reagents and buffers included in the kit as follows.
88 μL of 1× reaction buffer were placed into each well. 5 μL of test compounds in 20% DMSO were added into each well. 10 mM solutions of test compounds in DMSO were diluted by 3-fold series to give 8 point concentration curves. The compounds were then diluted 20-fold with the reaction buffer. To each well was then added 7 μL of His-tagged PCSK9 wild type solution (1000 ng/mL) into each well. The plate was then covered with a plate sealer and incubated at room temperature for 3 hours, shaking at 300 rpm on an orbital microplate shaker. The test solutions were washed 4 times with 350 μL wash buffer. 100 μL of biotinylated anti-His-tag monoclonal antibody was added to each well. The plate was covered with a plate sealer, and incubated at room temperature for 1 hour, shaking at 300 rpm. The test solutions were washed 4 times with 350 μL wash buffer. 100 μL of HRP-conjugated streptavidin was added to each well. The plate was covered with a plate sealer, and incubated at room temperature for 20 min, shaking at 300 rpm.
The test solutions were washed 4 times with 350 μL wash buffer. 100 μL of substrate reagent were added into each well. The plate was covered with a plate sealer, and incubated at room temperature for 15 min, shaking at 300 rpm. Finally, 100 μL of the stop solution was added to each well in the same order as the previously added substrate reagent. Absorbance was measured at 450 nm and 540 nm and IC50 curves were plotted.

T1 sequence (Q8NBP7 153-692): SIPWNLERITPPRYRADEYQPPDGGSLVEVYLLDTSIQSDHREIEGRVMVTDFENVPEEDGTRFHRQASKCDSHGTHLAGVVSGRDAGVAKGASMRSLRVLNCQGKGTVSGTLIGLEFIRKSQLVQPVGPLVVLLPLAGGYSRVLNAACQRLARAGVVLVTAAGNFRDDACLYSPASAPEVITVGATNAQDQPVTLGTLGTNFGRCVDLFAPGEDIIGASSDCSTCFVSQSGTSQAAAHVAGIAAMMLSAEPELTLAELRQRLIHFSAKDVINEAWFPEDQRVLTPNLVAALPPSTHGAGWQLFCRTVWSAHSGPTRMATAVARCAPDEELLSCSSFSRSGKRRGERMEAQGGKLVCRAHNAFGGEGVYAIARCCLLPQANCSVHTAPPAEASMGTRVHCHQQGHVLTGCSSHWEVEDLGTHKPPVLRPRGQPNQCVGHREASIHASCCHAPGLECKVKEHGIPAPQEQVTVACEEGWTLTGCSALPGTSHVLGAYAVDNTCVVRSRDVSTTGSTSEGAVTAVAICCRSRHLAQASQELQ
T1 sequence (Q8NBP7 31-152 partner limits assumed): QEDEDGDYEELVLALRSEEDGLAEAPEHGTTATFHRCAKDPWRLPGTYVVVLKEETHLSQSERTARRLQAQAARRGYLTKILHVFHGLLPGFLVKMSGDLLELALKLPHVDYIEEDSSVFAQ

| SMILES | IC50 [µM] |
| --- | --- |
| Cc1cn(-c2cc(NC(=O)c3ccc(C)c(Nc4nccc(-c5ccccn5)n4)c3)cc(C(F)(F)F)c2)cn1 [Example 1, 4-methyl-N-(3-(4-methyl-1H-imidazol-1-yl)-5-(trifluoromethyl)phenyl)-3-((4-(pyridin-2-yl)pyrimidin-2-yl)amino)benzamide] | 10 to 100 |
| Cc1cn(-c2cc(NC(=O)c3ccc(C)c(Nc4nccc(-c5ccncc5)n4)c3)cc(C(F)(F)F)c2)cn1 [Example 2, 4-methyl-N-(3-(4-methyl-1H-imidazol-1-yl)-5-(trifluoromethyl)phenyl)-3-((4-(pyridin-4-yl)pyrimidin-2-yl)amino)benzamide] | 1 to 10 |
| Cc1cn(-c2cc(NC(=O)c3ccc(C)c(Nc4nccc(-c5ccccc5)n4)c3)cc(C(F)(F)F)c2)cn1 [Example 3, 4-methyl-N-(3-(4-methyl-1H-imidazol-1-yl)-5-(trifluoromethyl)phenyl)-3-((4-phenylpyrimidin-2-yl)amino)benzamide] | 1 to 10 |
| Cc1cn(-c2cc(NC(=O)c3ccc(C)c(Nc4ncccn4)c3)cc(C(F)(F)F)c2)cn1 [Example 4, 4-methyl-N-(3-(4-methyl-1H-imidazol-1-yl)-5-(trifluoromethyl)phenyl)-3-(pyrimidin-2-ylamino)benzamide] | 10 to 100 |
| Cc1cn(-c2cc(NC(=O)c3ccc(C)c(Nc4nccc(-c5ccccc5)n4)c3)cc(N3CCNCC3)c2)cn1 [Example 5, 4-methyl-N-(3-(4-methyl-1H-imidazol-1-yl)-5-(piperazin-1-yl)phenyl)-3-((4-phenylpyrimidin-2-yl)amino)benzamide] | 0.1 to 1 |
| Cc1cn(-c2cc(NC(=O)c3ccc(C)c(Nc4nccc(-c5ccccc5)n4)c3)cc(N3CCN(C)CC3)c2)cn1 [Example 6, 4-methyl-N-(3-(4-methyl-1H-imidazol-1-yl)-5-(4-methylpiperazin-1-yl)phenyl)-3-((4-phenylpyrimidin-2-yl)amino)benzamide] | 0.1 to 1 |
| Cc1cn(-c2cc(CN3CCN(C)CC3)cc(NC(=O)c3ccc(C)c(Nc4nccc(-c5ccccc5)n4)c3)c2)cn1 [Example 7, 4-methyl-N-(3-(4-methyl-1H-imidazol-1-yl)-5-((4-methylpiperazin-1-yl)methyl)phenyl)-3-((4-phenylpyrimidin-2-yl)amino)benzamide] | 0.1 to 1 |
| Cc1cn(-c2cc(/C=C/C(=O)O)cc(NC(=O)c3ccc(C)c(Nc4nccc(-c5ccccc5)n4)c3)c2)cn1 [Example 8, (E)-3-(3-(4-methyl-1H-imidazol-1-yl)-5-(4-methyl-3-((4-phenylpyrimidin-2-yl)amino)benzamido)phenyl)acrylic Acid] | 10 to 100 |
| Cc1cn(-c2cc(CCC(=O)O)cc(NC(=O)c3ccc(C)c(Nc4nccc(-c5ccccc5)n4)c3)c2)cn1 [Example 9, 3-(3-(4-methyl-1H-imidazol-1-yl)-5-(4-methyl-3-((4-phenylpyrimidin-2-yl)amino)benzamido)phenyl)propanoic Acid] | 1 to 10 |
| Cc1cn(-c2cc(CCS(N)(=O)=O)cc(NC(=O)c3ccc(C)c(Nc4nccc(-c5ccccc5)n4)c3)c2)cn1 [Example 10, 4-methyl-N-(3-(4-methyl-1H-imidazol-1-yl)-5-(2-sulfamoylethyl)phenyl)-3-((4-phenylpyrimidin-2-yl)amino)benzamide] | 10 to 100 |
| CCCCc1cc(NC(=O)c2ccc(C)c(Nc3nccc(-c4ccccc4)n3)c2)cc(-n2cnc(C)c2)c1 [Example 11, N-(3-butyl-5-(4-methyl-1H-imidazol-1-yl)phenyl)-4-methyl-3-((4-phenylpyrimidin-2-yl)amino)benzamide] | 1 to 10 |
| Cc1ccc(C(=O)Nc2cc(-n3cnc(C)c3)cc(C(F)(F)F)c2)cc1 [Example 12, 4-methyl-N-(3-(4-methyl-1H-imidazol-1-yl)-5-(trifluoromethyl)phenyl)benzamide] | 10 to 100 |
| Cc1cn(-c2cc(NC(=O)c3ccc(C)c(Oc4ccccc4)c3)cc(C(F)(F)F)c2)cn1 [Example 13, 4-methyl-N-(3-(4-methyl-1H-imidazol-1-yl)-5-(trifluoromethyl)phenyl)-3-phenoxybenzamide] | 10 to 100 |
| Cc1cn(-c2cc(NC(=O)c3ccc(C)c(OCc4ccccc4)c3)cc(C(F)(F)F)c2)cn1 [Example 14, 3-(benzyloxy)-4-methyl-N-(3-(4-methyl-1H-imidazol-1-yl)-5-(trifluoromethyl)phenyl)benzamide] | 10 to 100 |
| Cc1cn(-c2cc(NS(=O)(=O)c3ccc(C)c(Nc4nccc(-c5ccccc5)n4)c3)cc(C(F)(F)F)c2)cn1 [Example 15, 4-methyl-N-(3-(4-methyl-1H-imidazol-1-yl)-5-(trifluoromethyl)phenyl)-3-((4-phenylpyrimidin-2-yl)amino)benzenesulfonamide] | 10 to 100 |
| CC(=O)Nc1ccnc(Nc2cc(C(=O)Nc3cc(-n4cnc(C)c4)cc(C(F)(F)F)c3)ccc2C)n1 [Example 16, 3-((4-acetamidopyrimidin-2-yl)amino)-4-methyl-N-(3-(4-methyl-1H-imidazol-1-yl)-5-(trifluoromethyl)phenyl)benzamide] | 10 to 100 |
| Cc1ccc(C(=O)Nc2cccc(C(F)(F)F)c2)cc1Nc1nccc(-c2cccnc2)n1 [Example 17, 4-methyl-3-((4-(pyridin-3-yl)pyrimidin-2-yl)amino)-N-(3-(trifluoromethyl)phenyl)benzamide] | > 100 |
| Cc1cn(-c2cc(N3C(=O)c4cc(C)c(Nc5nccc(-c6cccnc6)n5)cc4C3=O)cc(C(F)(F)F)c2)cn1 [Example 18, 5-methyl-2-(3-(4-methyl-1H-imidazol-1-yl)-5-(trifluoromethyl)phenyl)-6-((4-(pyridin-3-yl)pyrimidin-2-yl)amino)isoindoline-1,3-dione] | 1 to 10 |
| Cc1cn(-c2cc(CN3CCC[C@H](N)C3)cc(NC(=O)c3ccc(C)c(Nc4nccc(-c5ccc(F)cc5)n4)c3)c2)cn1 [Example 19, (S)—N-(3-((3-aminopiperidin-1-yl)methyl)-5-(4-methyl-1H-imidazol-1-yl)phenyl)-3-((4-(4-fluorophenyl)pyrimidin-2-yl)amino)-4-methylbenzamide] | 0.1 to 1 |
| Cc1cn(-c2cc(CN3CCCC[C@H]3C(=O)O)cc(NC(=O)c3ccc(C)c(Nc4nccc(-c5ccc(F)cc5)n4)c3)c2)cn1 [Example 20, (S)-1-(3-(3-((4-(4-fluorophenyl)pyrimidin-2-yl)amino)-4-methylbenzamido)-5-(4-methyl-1H-imidazol-1-yl)benzyl)piperidine-2-carboxylic Acid] | 10 to 100 |
| Cc1cn(-c2cc(CN3CCCC[C@H]3C(N)=O)cc(NC(=O)c3ccc(C)c(Nc4nccc(-c5ccc(F)cc5)n4)c3)c2)cn1 [Example 21, (S)-1-(3-(3-((4-(4-fluorophenyl)pyrimidin-2-yl)amino)-4-methylbenzamido)-5-(4-methyl-1H-imidazol-1-yl)benzyl)piperidine-2-carboxamide] | 1 to 10 |
| Cc1cn(-c2cc(NC(=O)c3ccc(C)c(Nc4nccc(-c5ccc(F)cc5)n4)c3)cc(N3CCOCC3)c2)cn1 [Example 23, 3-((4-(4-fluorophenyl)pyrimidin-2-yl)amino)-4-methyl-N-(3-(4-methyl-1H-imidazol-1-yl)-5-morpholinophenyl)benzamide] | 10 to 100 |
| Cc1ccc(C(=O)Nc2cc(N3CCN(C)CC3)cc(-n3cnc(C)c3)c2)cc1 [Example 24, 4-methyl-N-(3-(4-methyl-1H-imidazol-1-yl)-5-(4-methylpiperazin-1-yl)phenyl)benzamide] | 10 to 100 |

same assay, conditions: His-tagged PCSK9 wild type; 8 point concentration curves; absorbance 450 nm and 540 nm; IC50 curves

| SMILES | Inhibition of PCSK9-LDLR binding |
| --- | --- |
| Cc1cn(-c2cc(NS(=O)(=O)c3ccc(C)c(Nc4nccc(-c5ccc(F)cc5)n4)c3)cc(N3CCN(C)CC3)c2)cn1 [Example 22, 3-((4-(4-fluorophenyl)pyrimidin-2-yl)amino)-4-methyl-N-(3-(4-methyl-1H-imidazol-1-yl)-5-(4-methylpiperazin-1-yl)phenyl)benzenesulfonamide] | * (Starred values refer to levels of inhibition of binding by less than 35% at the highest concentration tested, due either to solubility limitations or dynamic range limitations of the assay.) |
| Cc1cn(-c2cc(NC(=O)c3ccc(C)c(Oc4ccccc4)c3)cc(N3CCN(C)CC3)c2)cn1 [Example 25, 4-methyl-N-(3-(4-methyl-1H-imidazol-1-yl)-5-(4-methylpiperazin-1-yl)phenyl)-3-phenoxybenzamide] | * (Starred values refer to levels of inhibition of binding by less than 35% at the highest concentration tested, due either to solubility limitations or dynamic range limitations of the assay.) |
| COCCN1CCN(c2cc(NC(=O)c3ccc(C)c(Oc4ccccc4)c3)cc(-n3cnc(C)c3)c2)CC1 [Example 26, N-(3-(4-(2-methoxyethyl)piperazin-1-yl)-5-(4-methyl-1H-imidazol-1-yl)phenyl)-4-methyl-3-phenoxybenzamide] | * (Starred values refer to levels of inhibition of binding by less than 35% at the highest concentration tested, due either to solubility limitations or dynamic range limitations of the assay.) |
